# In patent US10307350B2, “Morphogenetically active amorphous calcium polyphosphate nanoparticles for therapeutic applications” (NanotecMARIN GmbH, priority 2014, dated 2019):
# Columns and labels:
# Format in all cases: cell-based, mouse
# MC3T3 cells [1] = test: Cell proliferation / cell viability XTT assay; settings: retinol 0.3 to 30 μM, absence of aCa-polyP-NP, 72 h
# Description: (§1) Mouse calvaria cells MC3T3-E1 cells (ATCC-CRL-2593) are used for the experiments and cultivated in a-MEM (Gibco—Invitrogen) containing 20% fetal calf serum [FCS] (Gibco). The medium contains 2 mM L-glutamine, 1 mM Na-pyruvate and 50 μg/ml of gentamycin. […] Reaching 80% confluency, the cells are detached using trypsin/EDTA and continuously subcultured at a density of 5·10^3 cells/ml. The cells are seeded at a density of 5·10^3 cells/well. Medium/serum change was every 3 d.
# The aCa-polyP-NP are added at the indicated concentration to the cultures, usually 3 μg/ml. Retinol is added in parallel; it is dissolved at 1 mg/ml ethanol and then diluted in DMSO [dimethyl sulfoxide] at the indicated concentrations. […]
# Cell proliferation can be determined, for example, by a colorimetric method based on the tetrazolium salt XTT (Cell Proliferation Kit II; Roche). The absorbance is determined at […] and subtracted form the background values (500 nm). In the experiments described in Examples, the viable cells have been determined after 72 h.
# [2] = system: collagen type III (COL-III); test: Collagen expression RT-qPCR in MC3T3-E1 cells, collagen type III; settings: single component: 3 μM retinol alone, or polyP sample in the absence of retinol; untreated 0.17±0.02
# Description: Mouse calvaria cells MC3T3-E1 cells (ATCC-CRL-2593) are used for the experiments and cultivated in a-MEM (Gibco-Invitrogen) containing 20% fetal calf serum [FCS] (Gibco). The medium contains 2 mM L-glutamine, 1 mM Na-pyruvate and 50 μg/ml of gentamycin. […] Reaching 80% confluency, the cells are detached using trypsin/EDTA and continuously subcultured at a density of 5·10^3 cells/ml. The cells are seeded at a density of 5·10^3 cells/well. Medium/serum change was every 3 d. The aCa-polyP-NP are added at the indicated concentration to the cultures, usually 3 μg/ml. Retinol is added in parallel; it is dissolved at 1 mg/ml ethanol and then diluted in DMSO [dimethyl sulfoxide] at the indicated concentrations. […], Wang […], Kropf […]. […] Acta Biomaterialia 2011; 7:2661-2671) is studied in parallel. […] After a 5 d incubation period the cells were collected and subjected to RT-qPCR analyses. […] The effect of 3 μM retinol on Na-polyP and on different nanoparticles as well as on the retinol/nanospheres was tested in a comparative way. The expression level of collagen type III was determined by RT-qPCR (FIG. 11). The expression values are correlated to the expression of the house-keeping gene GAPDH. […] Then the ratios between the levels in the cells, exposed to retinol or the nanoparticles/nanospheres alone or together, have been calculated and plotted.
# MC3T3 cells [3] = test: Microscopic density of attached cells after 72 h; settings: single component: aCa-polyP-NP 3 μg/ml or retinol 10 μM
# Description: as §1
# This synergistically-acting effect of the two test components can also be followed microscopically. In the absence of any of the components the density of the MC3T3 cells after the 72 h incubation is only low. […] Likewise low is the number of cells onto the plastic surface if 10 μM retinol is added.
structure (smiles),measurement,setting,value
"CC1=C(/C=C/C(C)=C/C=C/C(C)=C/CO)C(C)(C)CCC1 [retinol, all-trans retinol]",growth rate of the MC3T3 cells,MC3T3 cells [1],did not change significantly
same,collagen type III expression level correlated to GAPDH,[2],0.25±0.03
same,density of the cells attached to the substrate,MC3T3 cells [3],low
